From US20230310356A1, “COMPOSITION FOR PREVENTING, AMELIORATING, OR TREATING BRAIN DAMAGE AND MILD COGNITIVE IMPAIRMENT COMPRISING GLUTAMINE AS EFFECTIVE COMPONENT” (INDUSTRY-ACADEMIC COOPERATION FOUNDATION GYEONGSANG …, priority 2020, published 2023)

Legend:
nNOS = experiment: Double-IHC protein expression after CIS and glutamine supplementation: nNOS; type: in vivo, mouse; details: microglial cells in infralimbic cortex and hippocampal CA1 region; glutamine supplementation diet vs stress group
Description: (§1) Control (CTL) is a group which received normal diet (common diet with nutritional balance) without any stress, CTL+Gln group is a normal diet group supplemented with glutamine (150 mg/kg of feed) and without any stress, STR is a normal diet group under stress, and STR+Gln group is a normal diet group supplemented with glutamine (150 mg/kg of feed) under stress. The stress group (STR) was individually brought by force to a restrainer for 2 hours every day (i.e., between 2 PM and 4 PM) so that the animals are applied with chronic immobilization stress for 15 days. To determine the specific changes in the brain tissues after glutamine supplementation, double staining was carried out with a cell marker so that the proteins related to a change in ROS/RNS content (i.e., iNOS; nNOS; and p47phox and p67phox as a subunit of NOX) with cell markers are analyzed by double-IHC (immunohistochemistry). Twenty-four hours after applying the last stress, the mouse was anesthetized with avertin, and perfused with PBS (pH 7.4) and 4% formaldehyde. After that, the brain was removed, fixed, and cut to a thickness with 40 μm. […]

iNOS = experiment: Double-IHC protein expression after CIS and glutamine supplementation: iNOS; type: in vivo, mouse; details: microglial cells in infralimbic cortex and hippocampal CA1 region; glutamine supplementation diet vs stress group
Description: as §1

ROS/RNS = ROS/RNS levels in plasma, PFC and hippocampus after CIS and glutamine supplementation; type: in vivo, mouse; details: STR+Gln vs STR
Description: Control (CTL) is a group which received normal diet (common diet with nutritional balance) without any stress, CTL+Gln group is a normal diet group supplemented with glutamine (150 mg/kg of feed) and without any stress, STR is a normal diet group under stress, and STR+Gln group is a normal diet group supplemented with glutamine (150 mg/kg of feed) under stress. The stress group (STR) was individually brought by force to a restrainer for 2 hours every day (i.e., between 2 PM and 4 PM) so that the animals are applied with chronic immobilization stress for 15 days. Fifty-one model animals of the second cohort, i.e., 12 to 13 animals per group, were not subjected to any behavior analysis but immediately sacrificed after completion of the last immobilization stress. Then, ROS/RNS levels in the plasma, PFC, and hippocampus were examined. Specifically, ROS/RNS was examined by using ROS/RNS assay kit (STA-347; Cell Biolabs, San Diego, CA, USA) and following the manufacturer's protocol. PFC and hippocampal tissues were subjected to tissue homogenization by using Bullert blender after adding glass beads to RIPA (radioimmunoprecipitation assay) buffer solution. After the ultrasonication for 2 minutes, they were centrifuged for 10 minutes at conditions including 4° C. and 12,000×g. Then, the measurement of fluorescence intensity using Tecan Infinite F200 PRO MicroReader was repeated 3 times.

[1] = tested on: 3×TG-AD female mouse (model of Alzheimer's disease); experiment: ORT cognitive ability test in animal model of Alzheimer's disease with glutamine diet; type: in vivo; details: 6-weel old compared to the 2-weeks old
Description: As an animal model for cognitive ability evaluation, a 7-weeks old 3×TG-AD female mouse (8 mice. model of Alzheimer's disease) and a C57BL/6 female mouse (10 mice, control) were selected. The animals of each type were divided into 2 groups, and each group was provided with regular animal feed (i.e., normal diet, ND) or glutamine feed (Gln). The glutamine diet group was allowed to consume the feed containing 150 mg glutamine/kg diet, from 2-months old stage to the end of test (i.e., 6 to 7-months old stage). Health state of the animal was checked by measuring, once a week, the bodyweight of the animal and food intake (FIG. 7A). Cognitive ability test of the mouse as an animal model established above was determined by ORT (object recognition test). The animal was habituated in a box for 2 days. On Day 3, it was allowed to explore two identical objects for 10 minutes. On Day 4, one of the two objects was replaced with a novel object, and then, the animal was allowed to explore further for 5 minutes (FIG. 7B). The time spent by animal for exploring after approaching within 1 cm from the periphery of both objects was measured. After carrying out the calculation using Formula (3) below, DI (discrimination index) was calculated and compared to each other. In the present invention, a different novel object was employed for carrying out each test. […]

SMILES: NC(=O)CC[C@H](N)C(=O)O [glutamine]
- expression amount of nNOS (nNOS): statistically significant decrement
- expression amount of iNOS (iNOS): statistically significant decrement
- level of active oxygen/nitrogen species (ROS/RNS) in hippocampus (ROS/RNS; hippocampal tissue): lower level
- level of active oxygen/nitrogen species (ROS/RNS) in plasma (ROS/RNS; plasma): lower level
- level of active oxygen/nitrogen species (ROS/RNS) in PFC (ROS/RNS; prefrontal cortex): lower level
- impairment in cognitive ability (object recognition ability, ORT) ([1]; 3×TG-AD glutamine diet group, 150 mg glutamine/kg diet): no significant impairment
- decrease of DI value in ORT ([1]; 3×TG-AD group with glutamine diet, average from each individual): 0.1
